# Assays:
# Format in all cases: in vivo
# Matricaria chamomilla = assay: greenhouse post-emergence treatment, MATCH; settings: for % activity: 20 DAT
# In short: (§1)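 Foliar application to greenhouse-grown plants 3–15 cm tall in humus-containing loamy sand; response assessed on a 0–100 scale after 2–4 weeks, with Colby's E=X+Y−(X·Y/100) as the additive expectation.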
# Digitaria sanguinalis = assay: greenhouse post-emergence treatment, DIGSA; settings: for % activity: 20 DAT
# In short: (§2)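 Scoring used a 0 to 100 scale, with 100 denoting no emergence or full destruction of at least the above-ground parts, recorded within a 2 to 4 week test period. Test plants grew in loamy sand containing about 3.0% humus at 10-25° C. or 20-35° C., after direct sowing or transplanting, and received water-based treatments post-emergence.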
# Lolium multiflorum = assay: greenhouse post-emergence treatment, LOLMU
# In short: as §2
# Echinocloa crus-galli = assay: greenhouse post-emergence treatment, ECHCG
# Method: (§3) The culture containers used were plastic pots containing loamy sand with approximately 3.0% of humus as substrate. The seeds of the test plants were sown separately for each species.
# (§4) For the post-emergence treatment, the test plants were grown to a plant height of from 3 to 15 cm, depending on the plant habit, and only then treated with the active compounds which had been suspended or emulsified in water. To this end, the test plants were either sown directly, and grown in the same containers, or they were first grown separately as seedlings and transplanted into the test containers a few days prior to treatment.
# (§5) Depending on the species, the plants were kept at 10-25° C. and 20-35° C., respectively.
# (§6) The test period extended over 2 to 4 weeks. During this time, the plants were tended and their response to the individual treatments was evaluated.
# (§7) Evaluation was carried out using a scale from 0 to 100. 100 means no emergence of the plants, or complete destruction of at least the above-ground parts, and 0 means no damage or normal course of growth. A good herbicidal activity is given at values of at least 70, and very good herbicidal activity is given at values of at least 85.
# (§8) The respective stated components A and B, and if appropriate, C were formulated as a 10% by weight strength emulsion concentrate and, with addition of the amount of solvent system, introduced into the spray liquor used for applying the active compound. In the examples, the solvent used was water.
# (§9) In the examples below, using the method of S. R. Colby (1967) “Calculating synergistic and antagonistic responses of herbicide combinations”, Weeds 15, p. 22ff., the value E, which is expected if the activity of the individual active compounds is only additive, was calculated. E=X+Y−(X·Y/100) where X=effect in percent using herbicide A at an application rate a; • Y=effect in percent using herbicide B at application rate b; • E=expected effect (in %) of herbicide A+herbicide B at application rates a+b.
# Galium aparine = assay: greenhouse post-emergence treatment, GALAP; settings: for % activity: 20 DAT
# In short: as §1
# Papaver rhoeas = assay: greenhouse post-emergence treatment, PAPRH; settings: for % activity: 20 DAT
# In short: as §1
# Stellaria media = assay: greenhouse post-emergence treatment, STEME
# In short: (§10)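 Greenhouse; post-emergence spray at 3–15 cm; aqueous EC formulation; 2–4 weeks; 0–100 visual score.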
# Polygonum convolvulus = assay: greenhouse post-emergence treatment, POLCO
# Method: as §3, §4, §5, §6, §7, §8, §9
# Ambrosia elatior = assay: greenhouse post-emergence treatment, AMBEL; settings: for % activity: 20 DAT
# Method: as §3, §4, §5, §6, §7, §8, §9
# Setaria viridis = assay: greenhouse post-emergence treatment, SETVI; settings: for % activity: 20 DAT
# In short: as §2
# Poa annua = assay: greenhouse post-emergence treatment, POAAN; settings: Poa annua, 504 h, pyroxasulfone solo 15 gai/ha, 21 DAT, POAAN
# Method: as §3, §4, §5, §6, §7, §8, §9
# Brachiaria decumbens = assay: greenhouse post-emergence treatment, BRADC; settings: Urochloa decumbens, 504 h, 21 DAT, BRADC
# In short: as §10
# Alopecurus myosuroides = assay: greenhouse post-emergence treatment, ALOMY; settings: Alopecurus myosuroides, 504 h, 21 DAT, ALOMY
# In short: as §2
# Bromus sterilis = assay: greenhouse post-emergence treatment, BROST; settings: Bromus sterilis, 504 h, 21 DAT, BROST
# In short: as §2
# Avena fatua = assay: greenhouse post-emergence treatment, AVEFA; settings: Avena fatua, 504 h, 21 DAT, AVEFA
# In short: as §2
# [1] = 20 DAT, mesosulfuron solo 2 gai/ha
smiles,measurement,setting,value
COC(=O)c1ccc(CNS(C)(=O)=O)cc1S(=O)(=O)NC(=O)Nc1nc(OC)cc(OC)n1 [mesosulfuron],% activity,Matricaria chamomilla; mesosulfuron solo 1 gai/ha,30%
same,% activity,Matricaria chamomilla; mesosulfuron solo 2 gai/ha,30%
same,% activity,Matricaria chamomilla; mesosulfuron solo 8 gai/ha,90%
same,% activity,Matricaria chamomilla; mesosulfuron solo 9 gai/ha,90%
same,% activity,"Matricaria chamomilla; mesosulfuron solo (Mesosulfuron - Methyl WG […]), 2 gai/ha, MATCH",30%
same,% activity,Digitaria sanguinalis; mesosulfuron solo 1 gai/ha,0%
same,% activity,Digitaria sanguinalis; mesosulfuron solo 2 gai/ha,0%
same,% activity,Digitaria sanguinalis; mesosulfuron solo 4 gai/ha,20%
same,% activity,"Lolium multiflorum; 20 DAT, mesosulfuron solo 8 gai/ha",90%
same,% activity,Echinocloa crus-galli; [1],0%
same,% activity,Galium aparine; mesosulfuron solo 4 gai/ha,65%
same,% activity,Galium aparine; mesosulfuron solo 8 gai/ha,75%
same,% activity,"Galium aparine; mesosulfuron solo (Mesosulfuron - Methyl WG […]), 1 gai/ha, GALAP",55%
same,% activity,"Galium aparine; mesosulfuron solo (Mesosulfuron - Methyl WG […]), 2 gai/ha, GALAP",65%
same,% activity,"Galium aparine; mesosulfuron solo (Mesosulfuron - Methyl WG […]), 4 gai/ha, GALAP",65%
same,% activity,"Galium aparine; mesosulfuron solo (Mesosulfuron - Methyl WG […]), 8 gai/ha, GALAP",75%
same,% activity,Papaver rhoeas; mesosulfuron solo 1 gai/ha,70%
same,% activity,Papaver rhoeas; mesosulfuron solo 2 gai/ha,90%
same,% activity,Papaver rhoeas; mesosulfuron solo 8 gai/ha,98%
same,% activity,"Papaver rhoeas; mesosulfuron solo (Mesosulfuron - Methyl WG […]), 1 gai/ha, PAPRH",70%
same,% activity,"Stellaria media; 20 DAT, mesosulfuron solo 1 gai/ha",95%
same,% activity,Polygonum convolvulus; [1],30%
same,% activity,Ambrosia elatior; mesosulfuron solo 2 gai/ha,80%
same,% activity,Ambrosia elatior; mesosulfuron solo 4 gai/ha,85%
same,% activity,Setaria viridis; mesosulfuron solo 8 gai/ha,85%
same,% activity,"Setaria viridis; mesosulfuron solo (Mesosulfuron - Methyl WG […]), 8 gai/ha, SETVI",85%
Cn1nc(C(F)(F)F)c(CS(=O)(=O)C2=NOC(C)(C)C2)c1OC(F)F [pyroxasulfone],pest or weed control at 15 g/ha,"Matricaria chamomilla; Matricaria chamomilla, 504 h, MATCH, solo pyroxasulfone (WG 85%) 15 gai/ha, 21 DAT",0%
same,inhibition at 15 g/ha,"Matricaria chamomilla; Matricaria chamomilla, 504 h, pyroxasulfone solo 15 gai/ha, 21 DAT, MATCH",0%
same,pest or weed control at […],"Digitaria sanguinalis; Digitaria sanguinalis, 504 h, DIGSA, solo pyroxasulfone (WG 85%) 7.5 gai/ha, 21 DAT",0%
same,pest or weed control at 15 g/ha,"Digitaria sanguinalis; Digitaria sanguinalis, 504 h, DIGSA, solo pyroxasulfone (WG 85%) 15 gai/ha, 21 DAT",0%
same,inhibition at […],"Lolium multiflorum; Lolium multiflorum, 504 h, pyroxasulfone solo 7.5 gai/ha, 21 DAT, LOLMU",40%
same,inhibition at 15 g/ha,"Lolium multiflorum; Lolium multiflorum, 504 h, pyroxasulfone solo 15 gai/ha, 21 DAT, LOLMU",65%
same,inhibition at 30 g/ha,"Lolium multiflorum; Lolium multiflorum, 504 h, pyroxasulfone solo 30 gai/ha, 21 DAT, LOLMU",70%
same,inhibition at 60 g/ha,"Echinocloa crus-galli; Echinochloa crus-galli, 504 h, pyroxasulfone solo 60 gai/ha, 21 DAT, ECHCG, read-out: % activity",80%
same,inhibition at 15 g/ha,Poa annua,70%
same,pest or weed control at 15 g/ha,"Galium aparine; Galium aparine, 504 h, GALAP, solo pyroxasulfone (WG 85%) 15 gai/ha, 21 DAT",70%
same,inhibition at […],"Galium aparine; Galium aparine, 504 h, pyroxasulfone solo 7.5 gai/ha, 21 DAT, GALAP",40%
same,pest or weed control at […],"Papaver rhoeas; Papaver rhoeas, 504 h, PAPRH, solo pyroxasulfone (WG 85%) 7.5 gai/ha, 21 DAT",0%
same,pest or weed control at 15 g/ha,"Papaver rhoeas; Papaver rhoeas, 504 h, PAPRH, solo pyroxasulfone (WG 85%) 15 gai/ha, 21 DAT",0%
same,pest or weed control at 30 g/ha,"Papaver rhoeas; Papaver rhoeas, 504 h, PAPRH, solo pyroxasulfone (WG 85%) 30 gai/ha, 21 DAT",30%
same,pest or weed control at 60 g/ha,"Papaver rhoeas; Papaver rhoeas, 504 h, PAPRH, solo pyroxasulfone (WG 85%) 60 gai/ha, 21 DAT",60%
same,inhibition at 15 g/ha,"Papaver rhoeas; Papaver rhoeas, 504 h, pyroxasulfone solo 15 gai/ha, 21 DAT, PAPRH",0%
same,inhibition at 60 g/ha,"Papaver rhoeas; Papaver rhoeas, 504 h, pyroxasulfone solo 60 gai/ha, 21 DAT, PAPRH",60%
same,inhibition at 30 g/ha,"Stellaria media; Stellaria media, 504 h, pyroxasulfone solo 30 gai/ha, 21 DAT, STEME",0%
same,pest or weed control at […],"Polygonum convolvulus; Fallopia convolvulus, 504 h, POLCO, solo pyroxasulfone (WG 85%) 7.5 gai/ha, 21 DAT",30%
same,pest or weed control at 15 g/ha,"Polygonum convolvulus; Fallopia convolvulus, 504 h, POLCO, solo pyroxasulfone (WG 85%) 15 gai/ha, 21 DAT",30%
same,pest or weed control at 30 g/ha,"Polygonum convolvulus; Fallopia convolvulus, 504 h, POLCO, solo pyroxasulfone (WG 85%) 30 gai/ha, 21 DAT",30%
same,pest or weed control at 60 g/ha,"Polygonum convolvulus; Fallopia convolvulus, 504 h, POLCO, solo pyroxasulfone (WG 85%) 60 gai/ha, 21 DAT",30%
same,inhibition at […],"Polygonum convolvulus; Fallopia convolvulus, 504 h, pyroxasulfone solo 7.5 gai/ha, 21 DAT, POLCO",30%
same,inhibition at 15 g/ha,"Polygonum convolvulus; Fallopia convolvulus, 504 h, pyroxasulfone solo 15 gai/ha, 21 DAT, POLCO",30%
same,inhibition at 30 g/ha,"Polygonum convolvulus; Fallopia convolvulus, 504 h, pyroxasulfone solo 30 gai/ha, 21 DAT, POLCO",30%
same,inhibition at 60 g/ha,"Polygonum convolvulus; Fallopia convolvulus, 504 h, pyroxasulfone solo 60 gai/ha, 21 DAT, POLCO",30%
same,inhibition at […],Brachiaria decumbens; pyroxasulfone solo 7.5 gai/ha,0%
same,inhibition at 30 g/ha,"Brachiaria decumbens; pyroxasulfone solo 30 gai/ha, read-out: % activity",55%
same,inhibition at 60 g/ha,"Brachiaria decumbens; pyroxasulfone solo 60 gai/ha, read-out: % activity",75%
same,inhibition at […],Alopecurus myosuroides; pyroxasulfone solo 7.5 gai/ha,35%
same,inhibition at 30 g/ha,Alopecurus myosuroides; pyroxasulfone solo 30 gai/ha,65%
same,inhibition at […],Bromus sterilis; pyroxasulfone solo 7.5 gai/ha,20%
same,inhibition at 15 g/ha,Bromus sterilis; pyroxasulfone solo 15 gai/ha,40%
same,inhibition at 30 g/ha,"Ambrosia elatior; Ambrosia artemisiifolia, 504 h, pyroxasulfone solo 30 gai/ha, 21 DAT, AMBEL",20%
same,inhibition at 60 g/ha,"Ambrosia elatior; Ambrosia artemisiifolia, 504 h, pyroxasulfone solo 60 gai/ha, 21 DAT, AMBEL",60%
same,pest or weed control at 15 g/ha,"Setaria viridis; Setaria viridis, 504 h, SETVI, solo pyroxasulfone (WG 85%) 15 gai/ha, 21 DAT",40%
same,inhibition at […],Avena fatua; pyroxasulfone solo 7.5 gai/ha,25%
same,inhibition at 15 g/ha,Avena fatua; pyroxasulfone solo 15 gai/ha,30%
